According to patent US12558342B2, “2-[2-({12,12-dimethyl-4-oxo-6-phenyl-3,11-dioxatricyclo[8.4.0.0,2,7]tetradeca-1,5,7,9-tetraen-8-yl}oxy)acetamido]benzamide and derivatives as inhibitor of clock:bmal1 interaction for the treatment of circadian rhythm diseases and disorders” (KOC UNIVERSITESI, priority 2019, dated 2026):

How the values were obtained:
[1] = biological target: T1, CLOCK-F80A-K220A and BMAL1 interaction (Homo sapiens, UniProt O15516, F80A/K220A); experiment: Co-immunoprecipitation of FLAG-CLOCK-F80A-K220A and BMAL1; assay type: biochemical; conditions: 40 μM
T1 construct: expressed in transfected cells; host or cells: HEK 293T
T1 sequence (O15516 1-846 F80A/K220A): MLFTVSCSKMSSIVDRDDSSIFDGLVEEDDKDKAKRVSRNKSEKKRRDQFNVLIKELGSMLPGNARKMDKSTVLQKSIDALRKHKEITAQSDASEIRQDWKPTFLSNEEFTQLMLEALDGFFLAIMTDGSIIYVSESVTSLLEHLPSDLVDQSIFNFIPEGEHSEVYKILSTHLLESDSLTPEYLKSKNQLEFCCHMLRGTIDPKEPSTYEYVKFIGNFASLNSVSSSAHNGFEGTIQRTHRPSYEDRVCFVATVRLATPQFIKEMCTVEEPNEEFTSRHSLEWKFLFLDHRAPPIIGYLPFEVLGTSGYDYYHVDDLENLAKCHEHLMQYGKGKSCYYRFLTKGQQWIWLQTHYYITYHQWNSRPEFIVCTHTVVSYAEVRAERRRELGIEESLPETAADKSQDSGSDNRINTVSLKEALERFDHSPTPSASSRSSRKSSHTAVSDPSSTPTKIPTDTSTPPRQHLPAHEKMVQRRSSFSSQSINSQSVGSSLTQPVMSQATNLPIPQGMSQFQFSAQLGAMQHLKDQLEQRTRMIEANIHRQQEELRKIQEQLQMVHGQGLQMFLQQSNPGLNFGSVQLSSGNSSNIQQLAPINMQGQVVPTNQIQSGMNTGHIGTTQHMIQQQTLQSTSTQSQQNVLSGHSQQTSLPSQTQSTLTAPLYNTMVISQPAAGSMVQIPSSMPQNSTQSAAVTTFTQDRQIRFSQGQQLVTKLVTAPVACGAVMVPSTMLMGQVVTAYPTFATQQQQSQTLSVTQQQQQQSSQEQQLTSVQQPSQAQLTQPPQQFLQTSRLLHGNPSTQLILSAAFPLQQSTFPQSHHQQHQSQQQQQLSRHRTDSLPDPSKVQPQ
Protocol: HEK 293T cells co-expressing wild type or F80A-K220A mutant FLAG-tagged Clock together with tag-free Bmal1 were lysed with ice-cold lysis buffer (50 mM Tris-HCl PH 7.7, 150 mM NaCl, 0.1% Triton X-100, 1 mM PMSF and protease inhibitor cocktail) and centrifuged at 15000×g at 4° C. for 20 minutes. DMSO and different concentrations of CLK8 were added to the whole cell lysate. The mixtures were incubated with anti-FLAG M2 affinity gel (Sigma-Aldrich) at 4° C. overnight with continuous mixing. After three wash steps, bound proteins were eluted with Laemmli buffer heated at 95° C. for 7 minutes. CLOCK and BMAL1 were detected by monoclonal anti-FLAG M2 antibody (Sigma-Aldrich) and anti-BMAL1 (Santa Cruz Biotechnology) respectively. The amount of co-precipitated BMAL1 was normalized with the amount of precipitated CLOCK.
HEK 293T cells co-expressing wild type or F80A-K220A mutant FLAG-tagged Clock together with tag-free Bmal1 were lysed with ice-cold lysis buffer (50 mM Tris-HCl pH 7.7, 150 mM NaCl, 0.1% Triton X-100, 1 mM PMSF and protease inhibitor cocktail) and centrifuged at 15000×g at 4° C. for 20 minutes. DMSO and different concentrations of CLK8 were added to the whole cell lysate. […] CLOCK and BMAL1 were detected by monoclonal anti-FLAG M2 antibody (Sigma-Aldrich) and anti-BMAL1 (Santa Cruz Biotechnology) respectively. […]

[2] = system: Bmal1, Clock, and Cry1; experiment: In vivo study in mouse liver, qPCR; conditions: 25 mg/kg i.p., 6 h
Protocol: Male C57BL/6J mice, 8 weeks of age, weighing 18-24 g were treated with two different single doses of CLK8 (25 mg/kg n=5 per each dose) intraperitoneally. Control mice (n=3) were only treated with vehicle (DMSO:Cremophor EL: 0.9% NaCl; 2.5:15:82.5, v/v, i.p.). Water and food were provided ad libitum throughout the experiments. Six hours after injection, mice were sacrificed by cervical dislocation. Liver tissues were removed, frozen in liquid nitrogen and stored at −80° C. until further processing.

interaction between CLOCK-F80A-K220A and BMAL1 [1]: not affected
SMILES: CC1(C)CCc2c(cc(OCC(=O)Nc3ccccc3C(N)=O)c3c(-c4ccccc4)cc(=O)oc23)O1 [CLK8, 2-[2-({12,12-dimethyl-4-oxo-6-phenyl-3,11-dioxatricyclo [8.4.0.0,2,7]tetradeca-1,5,7,9-tetraen-8-yl}oxy)acetamido] benzamide]
Cry1 gene's transcriptional level (liver) [2]: significantly changed
